Where two headings read alike, the source gives them in different places.
Experiments:
Format in all cases: cell-based, human
tissue factor (TF) = test: LPS-induced tissue factor (TF) expression in PBMC, ELISA
Procedure: FIG. 2A represents MM6 cells; FIG. 2B represents PBMC. The cells were induced with LPS (hatched bars: 100 ng/ml LPS in RPMI supplemented with 10% BCS (RPMI+10% BCS); solid bars: 10 ng/ml in AIM-V+0.01% BCS) in the presence of varying concentrations of taurolidine,or with a dilution of the vehicle equivalent to that given to cells receiving 100 μg/ml taurolidine. After four hours, cells were collected and lysates were prepared for TF ELISA. Data are expressed as percent of TF antigen measured in cells treated with LPS alone (no taurolidine or vehicle). Experiments were performed with duplicate samples and were repeated at least three times. Values shown are mean±SEM of all experiments.
For induction of TF or TNFα expression, MM6 cells or PBMC were cultured either in RPMI supplemented with 10% BCS or in AIM-V+0.01% BCS, and stimulated by adding LPS to final concentrations of 10 to 100 ng/ml. […] Except as noted, taurolidine and LPS were added to the cell cultures simultaneously. For TF determination, cells and culture media together were treated by adding Triton X-100 (1% final) and EDTA (7 mmol/L final), and the resulting lysates assayed by ELISA. […] For TNFα determination, cells were removed by centrifugation for 5 min at 250×g, and the supernatants were assayed by ELISA.

granulocytes = test: TUNEL / propidium iodide flow cytometry, granulocytes; conditions: for cytotoxicity at 100 µg/mL: Homo sapiens
Procedure: Human granulocytes were isolated from heparinized blood by diluting blood 1:1 with 6% dextran to sediment RBC, then centrifuging to obtain leukocyte rich plasma. The remaining RBC were lysed by 20 second incubation with 0.2% NaCl. After lysis, NaCl was added to a final concentration of 0.9%, the sample was centrifuged, and the cell pellet resuspended in HBSS containing 0.5% HSA. An equal volume of Histopaque (Sigma) was layered underneath the cell suspension. Upon centrifugation, the PBMC remained above the Histopaque layer, while the granulocytes were sedimented. Purity of collected granulocytes was assayed by flow cytometry using PE-conjugated […].
(§1) In the second method, DNA fragmentation was detected via TUNEL assay according to the manufacturer's instructions. With this methodology, 2×10^6 cells were fixed with 2% paraformaldehyde, permeabilized with 0.1% Triton X-100/0.1% citrate, incubated at 37° C. with terminal deoxynucleotidyl transferase and FITC-dUTP, rinsed and analyzed by flow cytometry. Enhanced FITC signal indicates apoptosis-specific DNA fragmentation. Gavriali, et al, "Identification of programmed cell death in situ via specific labeling of nuclear DNA fragmentation," J Cell Biol 119:493 (1992). Parallel aliquots of unfixed cells were treated with PI and FITC-conjugated anti-CD14 and analyzed by flow cytometry, in order to identify cells with permeable cell membranes (since PI binds to DNA but is excluded from cells with intact plasma membranes) and also to determine the cell-specificity of the apoptotic signal.
The effect of taurolidine on granulocytes was assayed by TUNEL analysis on taurolidine-treated purified granulocytes. These experiments were conducted in culture medium rather than whole blood. Granulocytes were treated with 100 μg/ml taurolidine since it had been shown that this concentration of taurolidine is apoptogenic to peripheral blood monocytes treated in culture medium. TUNEL-positive granulocytes ranged from 2% to 30% in untreated samples, and varied according to blood donor. […] Therefore, the apoptogenic effect of taurolidine is not specific to monocytic cells.
^a Analysis by flow cytometry after staining cells with PI and
processing for TUNEL. Data are mean ± SEM of 5 experiments.

HL-60 = test: TUNEL / propidium iodide flow cytometry, HL-60; conditions: for % TUNEL-positive: HL-60, taurolidine 100 μg/ml or anisomycin 1 μg/ml for 4 h, assayed at 6 hours, mean ± SD
Procedure: as §1
Consequently, TUNEL analysis was performed on PBMC at 3, 6, or 24 hours after treatment with 25 to 100 μg/ml taurolidine. Aliquots of harvested cells were also labeled with FITC-conjugated anti-CD14 antibodies and PI, which allowed identification of monocytes (CD14-positive cells) and cells with damaged cell membranes (PI-positive cells). […] Thus, nearly 75% of the monocytes were TUNEL-positive following treatment with 100 μg/ml taurolidine for six hours. Confirmation that the TUNEL-positive cells were monocytes was obtained by staining with FITC-conjugated anti-CD14.
In another study, TUNEL assays were performed on all cell lines 6 hours after cells were initially exposed to taurolidine (cells were treated for 4 hours, rinsed, and then incubated for 2 more hours before TUNEL assay was performed).
. Taurolidine and anisomycin induced apoptosis in MM6, HL-60, and Jurkat cells (Table VIII). MM6 and HL-60 cells were similarly effected, with >80% TUNEL-positive cells after 6 hours. Jurkat cells were less sensitive, with approximately 50% of cells induced to undergo apoptosis after taurolidine treatment. After 6 hours, 73% of anisomycin-treated REH cells were apoptotic, with less than 20% of taurolidine-treated REH cells being TUNEL-positive. However, assay of cells 24 hours after
^a Analysis by flow cytometry after staining cells with propidium
iodide and processing for TUNEL.
Data are percent of total cell-size events, and are expressed as mean ±
Cells were treated for 4 hours with taurolidine (100 μg/ml) or
anisomycin (1 μg/ml), and then assayed at 6 hours.

O=S1(=O)CCN(CN2CCS(=O)(=O)NC2)CN1 [taurolidine, 4,4'-methylenebis(perhydro-1,2,4-thiadiazin 1,1-dioxide)]
inhibition of LPS-induced TF expression (tissue factor (TF); PBMC, taurolidine 75 μg/ml, 4 h): complete inhibition of TF expression | induction of TF in response to LPS (summary) (tissue factor (TF); peripheral blood monocytes or cultured MM6 cells): strongly inhibited the induction of TF | apoptosis of granulocytes (granulocytes; 100 μg/ml taurolidine, within 6 h, culture medium): 92% | cytotoxicity at 100 µg/mL (granulocytes; 6 h, granulocytes, 100 μg/ml taurolidine, mean ± SEM of 5 experiments (Table VII), read-out: % propidium iodide positive): 1.6 ± 0.5% | cytotoxicity at 100 µg/mL (granulocytes; granulocytes, 100 μg/ml, 6 hours (Table V), read-out: % Propidium Iodide Positive Cells): 2% | effectiveness in granulocytes relative to monocytes (granulocytes; TUNEL, purified cells in culture medium): at least as effective | % TUNEL-positive (granulocytes; granulocytes, 100 μg/ml taurolidine, mean ± SEM of 5 experiments (Table VII)): 91.5 ± 3.5% | % TUNEL-Negative Cells (granulocytes; granulocytes, 100 μg/ml, 6 hours (Table V)): 8% | % TUNEL-Negative Cells (HL-60; HL-60, 50 μg/ml, 3 hours): 35% | % TUNEL-positive (HL-60): 91.9 ± 10.9% | % TUNEL-positive (HL-60; listed as Taurolidine): > 80% | cytotoxicity at 50 µg/mL (HL-60; Homo sapiens, HL-60, 3 h, read-out: % Propidium Iodide Positive Cells): 5%

Source: patent US6303596A, “Use of taurolidine for treatment of leukemias” (priority 2000, dated 2001)
